Holding throughout (format): cell-based
One assay has as its system human PBMC. In words: Cytokine expression levels in culture supernatants of PBMC activated with R848. To be noted: PBMC + R848 5 µg/mL, 24 h, supernatant. How it is done:
(§1) The same experiment was performed but using different dilutions ranging from 1/8 to 1/64 of conditioned supernatants from activated PBMCs, instead of recombinant IFN-γ. Human peripheral blood mononuclear cells (PBMC) from one healthy donor were isolated by density centrifugation with Lymphoprep medium (StemCell Technologies) from leucocytes concentrates obtained when plateletpheresis was performed (Etablissement Français du Sang; Paris; France). To activate PBMCs, cells were treated for 24 h with the TLR7/8 ligand R848 at 5 µg/mL (Sigma Aldrich) and supernatants were harvested. R848 is known to induce expression of several cytokines, within which IFN-γ which is found at high levels in PBMC supernatants in comparison with type I IFNs (Table 4). Table 4. Cytokine expression levels in culture supernatants of human PBMC activated with R848.

Assay [1] relates to cellular response to IFN-α. In words: ISRE-Luc reporter assay: amplification of cellular response to IFN-α. To be noted: for EC50 / pEC50: ISRE-Luc reporter cells, dose-response 0.8 to 150 µM, luciferase after 24 h, pEC50<3.8 = inactive; for EC50 / amplification of cellular response to IFN-α / pEC50: IFN-α 150 IU/mL; for amplification of cellular response to IFN-α: HEK-293 ISRE-Luc (STING 37 cell line). The procedure:
Cells were cultured at 37°C and 5% CO2 in Dulbecco's modified Eagle's Medium (DMEM; Sigma-Aldrich) containing 10% fetal calf serum (FCS), penicillin and streptomycin. Experiments were performed on HEK-293 cells stably transfected with the ISRE-Luciferase reporter gene (ISRE-Luc), with or without NanoLuc as an additional reporter gene (Lucas-Hourani et al., 2013; Hayek et al., 2019).
Reporter cells were incubated with increasing concentrations of candidates DHODH inhibitors diluted in DMSO in the presence or not of recombinant IFN-α (150 IU/mL). Recombinant IFN-α was from Sigma-Aldrich or PBL Assay Science. Luciferase activity was quantified 24 h later.
To confirm that modulation of IFN-α is related to DHDOH inhibition by compounds of the invention, the same experiments were performed by adding either uridine (pyrimidine derivated nucleoside), dihydroorotate (DHO, the substrate od DHODH in pyrimidine de novo biosynthesis pathway) or orotate (the product of ubiquinone-mediated oxidation of DHO catalysed by DHODH) together with compound of the invention. uridine, orotate, and DHO are all from Sigma Aldrich.
Firefly luciferase expression in culture wells was measured using the Bright-Glo (Promega) or Britelite plus reagents (PerkinElmer), according to the manufacturer's recommendations. For each concentration, three independent experiments were performed.
Compounds were tested for their ability to boost cellular response to IFN-α using ISRE-Luc reporter cells.

Assay [2] has as its system de novo pyrimidine biosynthesis. In words: Purine (G/A) and pyrimidine (C/U) quantification by HPLC-coupled spectrophotometry in HEK-293 cells. As to conditions: 24 h, 5, 10 or 20 µg/mL. The procedure: Cells were cultured at 37°C and 5% CO2 in Dulbecco's modified Eagle's Medium (DMEM; Sigma-Aldrich) containing 10% fetal calf serum (FCS), penicillin and streptomycin. Nucleoside/nucleotide quantification in HEK-293 cells was performed as previously described in by Lucas-Hourani et al. (2017). Briefly, cells were plated in 6-well plates at 1x10^6 cells per well and after 24 h, several concentrations of compounds of the invention (diluted in DMSO) or DMSO alone was added.
One day later, cells were washed with PBS and cellular pellets were deproteinized by adding an equal volume of 6% perchloric acid. After 10 min of incubation on ice and clearing of the extracts by centrifugation (13,000 rpm for 10 min at 4°C), supernatants were supplemented with bidistilled water (V/V) and neutralized by the addition of 2 M Na2CO3. Extracts were analyzed by HPLC onto a C18 Supelco 5-µm (250 by 4.6 mm) column (Sigma) at 45°C using a mobile phase delivered at a flow rate of 1 mL/min. Buffer A contained 10 mM tetrabutylammonium hydroxide, 10 mM KH2PO4, and 0.25% MeOH and was adjusted to pH 6.9 with 1 M HCl. Buffer B contained 5.6 mM tetrabutylammonium hydroxide, 50 mM KH2PO4, and 30% MeOH and was neutralized to pH 7.0 with 1 M NaOH. […] Products were monitored spectrophotometrically at 254 nm with a diode array detector (PDA) and quantified by integration of the peak absorbance area. […]

A further assay concerns HEK-293 cells. In words: Cell viability / proliferation assay (CellTiter-Glo). To be noted: 24, 48 and 72 h of culture. The procedure: Cells were treated with DMSO or compounds of the invention at different concentrations, and the number of viable cells was determined using the CellTiter-Glo reagent after 24, 48 and 72 h of culture. Cellular viability was determined by quantification of ATP in culture wells using the CellTiter-Glo assay (Promega).
Two independent experiments were performed. Results were analyzed using one-way analysis of variance (ANOVA) with Bonferroni's post hoc test.

The subject of assay [3] is cellular response to IFN-γ. In words: ISRE-Luc reporter assay: amplification of cellular response to type II IFN. To be noted: HEK-293 ISRE-Luc, compound 80 µM, recombinant IFN-γ. The procedure:
Reporter system, cell culture and luciferase assay are performed as exposed above. HEK-293 cells with the ISRE-Luc reporter gene were treated with DMSO or compounds of the invention in the absence or presence of recombinant IFN-γ (Figure 4A; Roussel Uclaf or Milteny Biotech, 150 IU/mL).
as §1

As for `CCOCc1nc2c(N)nc3ccccc3c2n1CC(C)(C)O` [Compound R848], in the assay on human PBMC, the GM-CSF was 0.043 ng/mL, the IFN-α2 was determined as 0.097 ng/mL, the IFN-β came to 0.015 ng/mL and the IFN-γ amounted to 4.2 ng/mL. In the assay on human PBMC, the IFN-λ1 came to 0.016 ng/mL, the IL-1β amounted to 12 ng/mL, the IL-6 stood at 65 ng/mL and the IL-8 was found to be 214 ng/mL. For the same compound, in the assay with human PBMC, the IL-10 is recorded as 0.283 ng/mL, the IL-12p70 is listed as 0.009 ng/mL, the IP10 was 0.028 ng/mL and the TNF-α is 11 ng/mL.
On to `CC1(CCc2ccccc2)OC(=O)c2c1ccn(C1CC1)c2=O` (stereo not shown) [Compound 4, 5-cyclopropyl-1-methyl-1-phenethylfuro[3,4-c]pyridine-3,4(1H,5H)-dione], for which, in assay [1], the concentration for a half-maximal effect (EC50) is 6.31 µM.
As to `CC1(c2ccccc2)OC(=O)c2c1ccn(C1CC1)c2=O` (stereo not shown) [Compound 3, 5-cyclopropyl-1-methyl-1-phenylfuro[3,4-c]pyridine-3,4(1H,5H)-dione], in assay [1], the “amplification of cellular response to IFN-α” value was “amplified” and it took 25.1 µM to reach a half-maximal effect (EC50).
In the case of “5'-cyclopropyl-3'H-spiro[cyclopentane-1,1'-furo[3,4-c]pyridine]-3',4(5'H)-dione [Compound 1]”, in assay [1], the pEC50 came to 4.3.
On to “5'-cyclopropyl-3'H-spiro[cyclohexane-1,1'-furo[3,4-c]pyridine]-3',4(5'H)-dione [Compound 2]”, for which, in assay [1], the “amplification of cellular response to IFN-α” value is listed as “amplified” and the pEC50 is given as 4.4. For the same compound, the “reversal of amplification of response to IFN-α by uridine, orotate or DHO” value in assay [1] (compound 80 µM, uridine 125 µM, DHO 3 mM, orotate 3 mM) is “reversed by orotate but not DHO”. For the same compound, the “Pyrimidine (U and C) levels” value in assay [2] is “drop of pyrimidine cellular concentration”. For the same compound, in the assay with HEK-293 cells, the “proliferation of HEK-293 cells (number of viable cells)” value is on record as “prevent cell proliferation”. The “Amplification of response to IFN type II” value in assay [3] is given as “Amplification of response to IFN type II”.

Values taken from patent EP3750892A1, “NOVEL 5-CYCLOPROPYL-FURO[3,4-C]PYRIDINE-3,4(1H,5H)-DIONE 1,1' SUBSTITUTED DERIVATIVES AND THEIR USES” (Yerevan State University, priority 2019, dated 2020).
